Key:
[1] = molecular target: T1, His-DNMT1 (182 kDa, human) (Homo sapiens, UniProt P26358); assay: DNMT1 assay (tritiated SAM Flashplate methylation assay); type: biochemical
T1 construct: His; made in house
Experimental: His-DNMT1 (182 kDa, human) was cloned, expressed and purified as described in Halby et al. (ChemBioChem 2012, 13, 157-65). The reaction was performed in a 10 μL total reaction volume in low volume NBS™ 384-well microplates (Corning), containing the tested compound (up to 1% DMSO), 1 μM of a SAM/[methyl-^3H] SAM (3 TBq/mmol, PerkinElmer) mix in a ratio of 3-to-1 (isotopic dilution 1*:3), 0.3 μM of biotinylated hemimethylated DNA duplex (5′-GATmCGCmCGATGmCGmCGAATmCGmCGATmCGATGmCGAT-3′ and BIOT-5′-[…]-3′), and 90 nM of DNMT1 in methylation buffer (20 mM HEPES pH 7.2, 1 mM EDTA, 50 mM KCl, 25 μg/mL BSA). The reaction was incubated at 37° C. for 2 hours. 8 μL are then transferred into a streptavidin 96-well scintillant coated Flashplate™ (PerkinElmer) containing 190 μL of 20 μM SAH in 50 mM Tris-HCl pH 7.4. The Flashplate™ was agitated at room temperature for 1 hour, washed three times with 200 μL of 0.05% Tween®-20 in 50 mM Tris-HCl pH 7.4, and read in 200 μL of 50 mM Tris-HCl pH 7.4 on TopCount NXT™ (PerkinElmer).

[2] = molecular target: T2, human C-terminal DNMT3A (a.a. 623-908) (Homo sapiens, UniProt Q9Y6K1); assay: DNMT3A assay (restriction-based fluorescence assay); type: biochemical
T2 construct: The human C-terminal DNMT3A (a.a. 623-908); made in house
Excerpt: DNMT3A enzyme inhibition was adapted from the restriction-based fluorescence assay protocol described in Ceccaldi et al. (ChemBioChem 2011, 12, 1337-45). Briefly, a 5′-labelled biotin oligonucleotide is hybridized to its complementary strand labelled with 6-carboxyfluorescein at the 3′-end into a 384 well microplate (black Optiplates; Perkin Elmer) pre-coated with avidin. The duplex contains a unique CpG site overlapping with a restriction site of a methylation sensitive restriction enzyme. The human C-terminal DNMT3A (a.a. 623-908), produced as described in Gros et al. (Nucleic Acids Research 2013 41(19):e185), was added in each well (200 ng/well) and mixed with the chemical compounds at desired concentrations and freshly prepared AdoMet (20 μM final concentration) to start the reaction in a total volume of 50 μL. After 1 hour incubation at 37° C. each well were washed three times with PBS, Tween-20 0.05%, NaCl (500 mM) and three more times with PBST. Specific fluorescent signals were detected with the methylation-sensitive restriction enzyme HpyCH4IV (NEB) as described and measured on a Perkin Elmer Envision detector. The percentage of inhibition is reported. The formula used to calculate the percentage of inhibition is [(X−Y)/X]×100, where X is the signal determined in the absence of the inhibitor and Y is the signal obtained in the presence of the inhibitor. The concentration at which 50% of efficacy of inhibition is observed (EC50) was determined by analysis of a concentration range of the tested compound in triplicates. The non-linear regression fittings with sigmoidal dose-response (variable slope) were performed with GraphPad Prism 4.03 (GraphPad Software).

[3] = tested on: KG-1 human leukemia cells; assay: Anti-proliferative activity on KG-1 (ATPLite cell viability); type: cell-based; conditions: KG-1 cells
Experimental: Anti-Proliferative Activity. (on KG-1)
KG-1 human leukemia cells were obtained from the ATCC (USA) and cultivated in RPMI 1640 medium (with HEPES and Glutamine, BE12-115F, Lonza, France) supplemented with, respectively, 20% and 15% foetal calf serum (Lonza, France), at 37° C. and under 5% CO2. To measure the anti-proliferative properties of tested molecules, 2×10^4 cells are seeded at day 0 in a 96 wells plate. The compounds to be tested, stored at −20° C. as 10^−2 M stock solution in 100% DMSO, are freshly diluted on day 1 in RPMI 1640 medium, before adding a dose range of 3.2 nM to 10 μM to the cells. This treatment is repeated on day 2 and 3, and on day 4 cell viability is assessed using the ATPLite™ kit from Perkin (ATPlite™ 1 Step Luminescence Assay System, ref 3016739), following the provider instructions. The raw data are analyzed with GraphPad Prism software (v4.03) to generate EC50 values corresponding to the compound concentrations giving 50% reduction in cell viability. The values presented are the mean results of at least two independent experiments. […]
At the end of the experiment, cell viability was evaluated by determining the level of ATP released by viable cells.
EC50 values were determined with curve fitting analysis method (non linear regression model with a sigmoid dose response, variable Hill slope coefficient) provided by the Prism Software (GraphPad). Results were expressed as average EC50 values (concentration of tested compound that inhibits 50% of the maximum effect for the considered compound).

[4] = tested on: luciferase reporter gene under the control of the partially methylated CMV promoter in KG-1 cell line; assay: Gene expression (CMV-Luc reactivation) in KG-1 cells; type: cell-based, human; conditions: 24 h, induction factor vs DMSO control, mean of 3 experiments ± standard error
Experimental: Gene Expression. (CMV-Luc Reactivation)
KG-1 cell line, stably transfected with the luciferase Firefly (Luc+ from pGL3 by Promega) reporter gene under the control of the CMV promoter (from pEGFP-N1 by Clontech) partially methylated (50%), is seeded at 20,000 cell per well in 96-well plate. After 24 h of incubation in the presence of the compounds or the solvant DMSO, the induction of the promoter is measured by quantification of luciferase with the Brite-lite™ assay system (Perkin Elmer) according to the manufacturer protocol. The luminescence is measured on EnVision™ Multilabel Plate Reader (Perkin Elmer) and the data are expressed in induction factor compared to the DMSO control condition.

T1 sequence (P26358 whole entry): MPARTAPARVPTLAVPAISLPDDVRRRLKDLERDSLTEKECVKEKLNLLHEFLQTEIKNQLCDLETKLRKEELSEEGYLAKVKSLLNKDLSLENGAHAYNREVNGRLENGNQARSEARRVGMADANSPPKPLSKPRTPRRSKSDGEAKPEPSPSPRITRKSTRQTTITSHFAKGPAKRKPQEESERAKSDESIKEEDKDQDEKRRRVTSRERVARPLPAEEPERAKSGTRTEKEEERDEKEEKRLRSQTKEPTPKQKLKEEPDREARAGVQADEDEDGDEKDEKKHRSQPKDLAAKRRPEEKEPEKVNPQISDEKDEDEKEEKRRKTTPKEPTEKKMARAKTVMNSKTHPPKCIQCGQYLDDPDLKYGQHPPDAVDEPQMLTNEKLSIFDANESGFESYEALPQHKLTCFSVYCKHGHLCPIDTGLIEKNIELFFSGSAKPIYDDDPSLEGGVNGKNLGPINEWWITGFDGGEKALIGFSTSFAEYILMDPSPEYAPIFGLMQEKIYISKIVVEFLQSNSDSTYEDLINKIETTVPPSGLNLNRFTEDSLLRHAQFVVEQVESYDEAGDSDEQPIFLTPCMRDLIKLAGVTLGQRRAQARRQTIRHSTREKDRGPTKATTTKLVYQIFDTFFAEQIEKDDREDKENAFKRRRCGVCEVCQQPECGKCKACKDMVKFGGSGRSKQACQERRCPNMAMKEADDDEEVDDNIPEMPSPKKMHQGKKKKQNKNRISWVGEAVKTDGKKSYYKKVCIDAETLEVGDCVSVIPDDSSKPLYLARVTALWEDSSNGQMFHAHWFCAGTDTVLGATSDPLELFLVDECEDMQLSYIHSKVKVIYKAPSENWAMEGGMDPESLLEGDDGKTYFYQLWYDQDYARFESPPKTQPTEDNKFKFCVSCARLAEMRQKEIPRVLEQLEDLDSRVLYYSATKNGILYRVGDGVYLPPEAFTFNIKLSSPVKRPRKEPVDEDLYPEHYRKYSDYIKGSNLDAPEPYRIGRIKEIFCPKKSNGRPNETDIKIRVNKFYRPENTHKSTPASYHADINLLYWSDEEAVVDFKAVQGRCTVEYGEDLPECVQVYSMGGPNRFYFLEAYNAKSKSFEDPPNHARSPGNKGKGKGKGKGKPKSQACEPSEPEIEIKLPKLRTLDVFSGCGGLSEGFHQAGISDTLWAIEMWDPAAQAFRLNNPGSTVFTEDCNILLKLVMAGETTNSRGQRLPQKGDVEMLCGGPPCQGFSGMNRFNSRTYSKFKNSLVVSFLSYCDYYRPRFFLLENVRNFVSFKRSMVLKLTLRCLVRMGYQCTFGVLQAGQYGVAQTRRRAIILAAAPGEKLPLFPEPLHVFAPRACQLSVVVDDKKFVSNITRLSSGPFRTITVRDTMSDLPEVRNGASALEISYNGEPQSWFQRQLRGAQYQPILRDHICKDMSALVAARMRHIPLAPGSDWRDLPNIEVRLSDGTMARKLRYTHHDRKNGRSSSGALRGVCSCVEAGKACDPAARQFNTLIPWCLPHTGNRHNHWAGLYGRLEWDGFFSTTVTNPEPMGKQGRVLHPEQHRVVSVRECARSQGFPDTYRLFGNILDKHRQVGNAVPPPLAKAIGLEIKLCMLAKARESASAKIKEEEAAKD
T2 sequence (Q9Y6K1 627-912): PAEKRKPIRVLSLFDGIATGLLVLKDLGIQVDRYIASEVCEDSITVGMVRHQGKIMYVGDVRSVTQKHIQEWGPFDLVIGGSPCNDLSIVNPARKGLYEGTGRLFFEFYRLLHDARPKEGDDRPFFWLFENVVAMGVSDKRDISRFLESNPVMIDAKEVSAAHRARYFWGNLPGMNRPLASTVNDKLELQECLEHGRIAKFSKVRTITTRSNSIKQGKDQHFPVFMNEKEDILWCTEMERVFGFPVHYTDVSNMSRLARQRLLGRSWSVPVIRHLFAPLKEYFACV

Compound: c1ccc(CN2CCC(Nc3nc(N4CCN(c5ccccc5)CC4)nc4cc(OCC5CCN(CCNc6ccnc7ccccc67)CC5)ccc34)CC2)cc1 [Compound G, N-(1-benzylpiperidin-4-yl)-2-(4-phenylpiperazin-1-yl)-7-((1-(2-(quinolin-4-ylamino)ethyl)piperidin-4-yl)methoxy)quinazolin-4-amine]
- EC50 [1]: 10 µM
- inhibition at 10 µM ([1]; compound at 10 μM): 54%
- inhibition at 32 µM ([1]; compound at 32 μM): 100%
- melting point: 122 to 124 °C
- inhibition at 1 µM ([2]; compound at 1 μM): 57%
- inhibition at 3.2 µM ([2]; compound at 3.2 μM): 95%
- inhibition at 0.1 µM ([3]; compound at 0.1 μM, read-out: % proliferation inhibition 0.1 μM): -2.2%
- inhibition at 1 µM ([3]; compound at 1 μM, read-out: % proliferation inhibition 1 μM): 32.2%
- inhibition at 5 µM ([3]; compound at 5 μM, read-out: % proliferation inhibition 5 μM): 99.6%
- inhibition at 10 µM ([3]; compound at 10 μM, read-out: % proliferation inhibition 10 μM): 99.8%
- Reactivation fold of luciferase gene reporter, 0.1 μM ([4]; compound at 0.1 μM): 1.1 ± 0.0 fold
- Reactivation fold of luciferase gene reporter, 1 μM ([4]; compound at 1 μM): 5.3 ± 0.4 fold
- Reactivation fold of luciferase gene reporter, 5 μM ([4]; compound at 5 μM): 0.2 ± 0.1 fold
- Reactivation fold of luciferase gene reporter, 10 μM ([4]; compound at 10 μM): 0.0 ± 0.0 fold

Reference: patent US10450299B2, “Substituted quinazoline derivatives as DNA methyltransferase inhibitors” (Pierre Fabre Medicament, priority 2015, dated 2019)
